The record followed here is article PMC11156913, “New sulfonamide-based glycosides incorporated 1,2,3-triazole as cytotoxic agents through VEGFR-2 and carbonic anhydrase inhibitory activity” (Scientific Reports, 2024).

The subject of data set [1] is breast MCF-7 cancer cell line. The data set can be described thus: In vitro cytotoxic activity (MTT assay), MCF-7. Type of data set: cell-based, human. The note with it: for inhibition at 100 µM: 48 h, read-out: % inhibition ± SD MCF-7. The text has this: (§1) The supplemental file contained extra details.
On the technique in general: Tetrazolium assays rely on reduction of a dye to a coloured formazan, in cell work by metabolically active cells.

Data set [2] deals with colorectal HCT-116 cancer cell line. The data set can be described thus: In vitro cytotoxic activity (MTT assay), HCT-116. The data set is classed as cell-based, human. Conditions: for inhibition at 100 µM: HCT-116, 48 h, read-out: % inhibition ± SD HCT-116.
Source text: as §1

Data set [3] concerns lung A-549 cancer cell line. Briefly: In vitro cytotoxic activity (MTT assay), A-549. Conditions: Homo sapiens, A549, 48 h, read-out: % inhibition ± SD A-549.
Method: Exponentially, cells were placed in 10^4 cells/ well for 24 h, and then add fresh medium which containing different concentration of the tested sample. Serial two-fold dilution of the tested sample were added using a multichannel pipette. […] Rinse the wells using water until no stain. After that, add 30% glacial acetic acid to all wells with shaking plates on Microplate reader (TECAN, Inc.) to measure the absorbance, using a test wavelength of 490 nm. Besides, compare the treated samples with the control cell.
Data set [4] concerns liver HepG-2 cancer cell line. The data set can be described thus: In vitro cytotoxic activity (MTT assay), HepG-2.
Source text: as §1

As for `O=S(=O)(NC1CCCCC1)c1ccc(-n2cc(CO[C@@H]3OC[C@@H](O)[C@H](O)[C@H]3O)nn2)cc1` [Compound 13, N-cyclohexyl-4-(4-([β-D-Xylopyranosyl]oxymethyl)-1H-1,2,3-triazol-1-yl)benzenesulfonamide], the melting point was in the range of 160 to 162 °C. For the same compound, in data set [1] (12.5 µM), the “percentage cytotoxicity on MCF-7” value is listed as 34.87±5.91%. Besides, the “percentage cytotoxicity on MCF-7” value in data set [1] (25 µM) is reported as 48.07±4.31%. For the same compound, in data set [1] (50 µM), the “percentage cytotoxicity on MCF-7” value is on record as 54.73±1.88%. Further, the “percentage cytotoxicity on MCF-7” value in data set [1] (100 µM) was 71.43±2.03%. Besides, the inhibition at 100 µM in data set [1] (Homo sapiens, MCF7, 100 µM) is 71.43 ± 0.03%. Besides, the IC50 in data set [1] (Homo sapiens, MCF7, MCF-7 cells, MTT, read-out: IC50 (mean ± SD) MCF-7) was 30.83 ± 0.2 µM. Moreover, the “percentage cytotoxicity on HCT-116” value in data set [2] (12.5 µM) is recorded as 11.00±0.65%. Moreover, the “percentage cytotoxicity on HCT-116” value in data set [2] (25 µM) is on record as 28.51±0.69%. For the same compound, the “percentage cytotoxicity on HCT-116” value in data set [2] (50 µM) is on record as 47.00±0.79%. Also, the “percentage cytotoxicity on HCT-116” value in data set [2] (100 µM) was determined as 70.10±1.05%. In data set [2] (Homo sapiens, 100 µM), the inhibition at 100 µM came to 70.1 ± 1.05%. Moreover, in data set [2] (Homo sapiens, HCT-116 cells, MTT, read-out: IC50 (mean ± SD) HCT-116), the IC50 turned out to be 53.1 ± 0.69 µM. Also, the inhibition at 100 µM in data set [3] came to 54.6 ± 0.97%. In data set [4] (12.5 µM), the “percentage cytotoxicity on HepG-2” value is recorded as 43.30±0.66%. For the same compound, in data set [4] (25 µM), the “percentage cytotoxicity on HepG-2” value is recorded as 38.80±0.40%. The “percentage cytotoxicity on HepG-2” value in data set [4] (50 µM) came out at 56.20±1.29%. Further, the “percentage cytotoxicity on HepG-2” value in data set [4] (100 µM) turned out to be 75.10±0.12%. Further, the IC50 in data set [4] (Homo sapiens, HepG2, read-out: IC50 (mean ± SD) HepG-2) is 30.01 ± 0.06 µM.
On to `CCCCNS(=O)(=O)c1ccc(-n2cc(CO[C@@H]3O[C@H](CO)[C@H](O)[C@H](O)[C@H]3O)nn2)cc1` [Compound 10, N-butyl-4-(4-([β-D-Galactopyranosyl]oxymethyl)-1H-1,2,3-triazol-1-yl)benzenesulfonamide], for which the melting point was 100 to 102 °C. Also, in data set [1] (Homo sapiens, MCF7, 100 µM), the inhibition at 100 µM is 25.4 ± 0.91%. The inhibition at 100 µM in data set [2] (Homo sapiens, 100 µM) was 8.91 ± 2.7%. Further, the inhibition at 100 µM in data set [3] amounted to 32 ± 0.84%. Besides, the inhibition at 100 µM in data set [4] (Homo sapiens, HepG2, 48 h, read-out: % inhibition ± SD HepG-2) is 35.9 ± 0.42%.

As usually defined, the inhibition is the share of the control response that was lost under treatment. A word on the IC50: it is the concentration at which inhibition is half-maximal. For orientation: melting point means the temperature, or range, at which the solid turns liquid.
